# Molecular target: T1, human MGL from HeLa cells (Homo sapiens, UniProt Q99685)
# T1 construct: combining endogenously expressed MGL from HeLa cells with test compounds; endogenous in cells; host or cells: HeLa cells / cell homogenates
# T1 sequence (Q99685 1-303): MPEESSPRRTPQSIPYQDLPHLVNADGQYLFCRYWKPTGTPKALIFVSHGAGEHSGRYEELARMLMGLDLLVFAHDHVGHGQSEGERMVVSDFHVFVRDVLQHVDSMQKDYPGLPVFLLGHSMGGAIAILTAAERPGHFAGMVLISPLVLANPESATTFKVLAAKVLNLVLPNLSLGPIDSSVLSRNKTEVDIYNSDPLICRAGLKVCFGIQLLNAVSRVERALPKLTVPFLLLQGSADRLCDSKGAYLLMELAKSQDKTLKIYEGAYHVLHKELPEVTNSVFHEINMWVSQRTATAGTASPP
# Test: In vitro MGL activity assay: [glycerol-1,3-3H]-oleyl glycerol cleavage by MGL from HeLa cells
# Format: biochemical
# Settings: 300 nM [Glycerol-1,3-3H]-oleyl glycerol, one hour
# Source text: MGL is the predominant hydrolase in HeLa cells/cell homogenates.
row,SMILES,IC50
1,"Cc1ccc2cc(C(=O)N3CCc4c(nn(C)c4-c4cc(F)c(F)c(F)c4)[C@@H]3C)ccc2n1 [Example 548, [(7S)-2,7-Dimethyl-3-(3,4,5-trifluorophenyl)-5,7-dihydro-4H-pyrazolo[3,4-c]pyridin-6-yl]-(2-methyl-6-quinolyl)methanone]",16.2 nM
2,"Cc1ccnc2ccc(C(=O)N3CCc4c(nn(C)c4-c4cc(F)c(F)c(F)c4)[C@@H]3C)cc12 [Example 549, [(7S)-2,7-Dimethyl-3-(3,4,5-trifluorophenyl)-5,7-dihydro-4H-pyrazolo[3,4-c]pyridin-6-yl]-(4-methyl-6-quinolyl)methanone]",1.99 nM
3,"COc1cccc2c(C(=O)N3CCc4c(nn(C)c4-c4cc(F)c(F)c(F)c4)[C@@H]3C)ccnc12 [Example 550, [(7S)-2,7-Dimethyl-3-(3,4,5-trifluorophenyl)-5,7-dihydro-4H-pyrazolo[3,4-c]pyridin-6-yl]-(8-methoxy-4-quinolyl)methanone]",48.3 nM
4,"C[C@H]1c2nn(C)c(-c3cc(F)c(F)c(F)c3)c2CCN1C(=O)c1cnn2c1CCC2 [Example 551, 5,6-Dihydro-4H-pyrrolo[1,2-b]pyrazol-3-yl-[(7S)-2,7-dimethyl-3-(3,4,5-trifluorophenyl)-5,7-dihydro-4H-pyrazolo[3,4-c]pyridin-6-yl]methanone]",122 nM
5,"C[C@H]1c2nn(C)c(-c3cc(F)c(F)c(F)c3)c2CCN1C(=O)c1cnn2c1CCCC2 [Example 552, [(7S)-2,7-Dimethyl-3-(3,4,5-trifluorophenyl)-5,7-dihydro-4H-pyrazolo[3,4-c]pyridin-6-yl]-(4,5,6,7-tetrahydropyrazolo[1,5-a]pyridin-3-yl)methanone]",40.4 nM
6,"C[C@H]1c2nn(C)c(-c3cc(F)c(F)c(F)c3)c2CCN1C(=O)c1cnn2c1OCCC2 [Example 554, 6,7-Dihydro-5H-pyrazolo[5,1-b][1,3]oxazin-3-yl-[(7S)-2,7-dimethyl-3-(3,4,5-trifluorophenyl)-5,7-dihydro-4H-pyrazolo[3,4-c]pyridin-6-yl]methanone]",57.6 nM
7,"Cc1nn2c(c1C(=O)N1CCc3c(nn(C)c3-c3cc(F)c(F)c(F)c3)[C@@H]1C)COC(C)(C)C2 [Example 556, [(7S)-2,7-Dimethyl-3-(3,4,5-trifluorophenyl)-5,7-dihydro-4H-pyrazolo[3,4-c]pyridin-6-yl]-(2,6,6-trimethyl-4,7-dihydropyrazolo[5,1-c][1,4]oxazin-3-yl)methanone]",803 nM
8,"C[C@H]1c2nn(C)c(-c3cc(F)c(F)c(F)c3)c2CCN1C(=O)c1cnn2c1NCCC2C(F)(F)F (stereo partly drawn) [Example 558, ((S)-2,7-Dimethyl-3-(3,4,5-trifluorophenyl)-4,5-dihydro-2H-pyrazolo[3,4-c]pyridin-6 (7H)-yl)(7-(trifluoromethyl)-4,5,6,7-tetrahydropyrazolo[1,5-a]pyrimidin-3-yl)methanone]",1800 nM

# Continued, values first:
row,IC50,SMILES
1,285 nM,"C[C@H]1c2nn(C)c(-c3cc(F)c(F)c(F)c3)c2CCN1C(=O)c1cc2n(n1)CCCO2 [Example 553, 6,7-Dihydro-5H-pyrazolo[5,1-b][1,3]oxazin-2-yl-[(7S)-2,7-dimethyl-3-(3,4,5-trifluorophenyl)-5,7-dihydro-4H-pyrazolo[3,4-c]pyridin-6-yl]methanone]"
2,183 nM,"Cc1c(C(=O)N2CCc3c(nn(C)c3-c3cc(F)c(F)c(F)c3)[C@@H]2C)nn2c1OCCC2 [Example 555, [(7S)-2,7-Dimethyl-3-(3,4,5-trifluorophenyl)-5,7-dihydro-4H-pyrazolo[3,4-c]pyridin-6-yl]-(3-methyl-6,7-dihydro-5H-pyrazolo[5,1-b][1,3]oxazin-2-yl)methanone]"
3,1840 nM,"Cc1c(C(=O)N2CCc3c(nn(C)c3-c3cc(F)c(F)c(F)c3)[C@@H]2C)nn2c1COC(C)(C)C2 [Example 557, [(7S)-2,7-Dimethyl-3-(3,4,5-trifluorophenyl)-5,7-dihydro-4H-pyrazolo[3,4-c]pyridin-6-yl]-(3,6,6-trimethyl-4,7-dihydropyrazolo[5,1-c][1,4]oxazin-2-yl)methanone]"

# Reference: US11820766B2, “Monoacylglycerol lipase modulators” (Janssen Pharmaceutica NV, priority 2018, dated 2023)
